Target: T1, ABCG2 (Homo sapiens, UniProt Q9UNQ0)
T1 sequence (Q9UNQ0 1-655): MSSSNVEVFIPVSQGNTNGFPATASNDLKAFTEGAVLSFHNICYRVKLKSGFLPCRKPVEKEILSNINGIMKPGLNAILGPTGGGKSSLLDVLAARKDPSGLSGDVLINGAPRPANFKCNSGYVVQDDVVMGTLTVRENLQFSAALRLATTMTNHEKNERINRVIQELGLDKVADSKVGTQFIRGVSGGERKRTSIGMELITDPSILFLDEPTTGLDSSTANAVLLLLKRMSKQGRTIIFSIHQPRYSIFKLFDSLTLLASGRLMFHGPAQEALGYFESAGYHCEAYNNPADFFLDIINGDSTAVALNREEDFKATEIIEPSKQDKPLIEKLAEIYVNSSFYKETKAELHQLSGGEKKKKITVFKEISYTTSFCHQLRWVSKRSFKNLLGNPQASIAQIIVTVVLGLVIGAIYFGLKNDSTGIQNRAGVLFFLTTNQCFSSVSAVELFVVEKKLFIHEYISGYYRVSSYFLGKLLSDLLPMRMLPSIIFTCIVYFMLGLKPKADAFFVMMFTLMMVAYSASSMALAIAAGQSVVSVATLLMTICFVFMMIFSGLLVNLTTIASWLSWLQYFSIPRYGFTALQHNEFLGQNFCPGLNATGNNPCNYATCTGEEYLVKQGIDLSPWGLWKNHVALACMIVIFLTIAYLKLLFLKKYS
Test: Vi-sensitive ABCG2 ATPase stimulation in High Five insect cell membranes
Format: biochemical

EC50 | SMILES
210 nM | COc1ccc(C(=O)c2ccc3[nH]cc(C(=O)c4ccc(OC)cc4)c3c2OC)cc1 [compound 2, (4-methoxy-1H-indole-3,5-diyl)bis((4-methoxyphenyl)methanone)]
750 nM | COc1ccc(C(=O)c2c[nH]c3ccc(OC)cc23)cc1 [compound 8, (5-Methoxy-1H-indol-3-yl)(4-methoxyphenyl)methanone]

Source: article PMC6718313 (European journal of medicinal chemistry, 2019)
